According to patent publication US20110144194A1, “CHROMENONE DERIVATIVES USEFUL FOR THE TREATMENT OF NEURODEGENERATIVE DISEASES” (priority 2008, published 2011):
“Also recorded” adds a separate entry of the source.

Key:
microglial cells [1] = experiment: Nitrite quantification by Griess method in LPS-activated microglial cells; assay type: cell-based; conditions: test compound at 1 μM; 10 ng/ml LPS; medium collected after 48 h; control 0.1% DMSO; read-out: % of NO/control
Procedure: (§1) The experiments that were carried out concern the ability of these molecules to inhibit the liberation of nitrites and Tumor Necrosis Factor-alpha (TNF-α) in the activated microglia. NO and TNF-α production are two common parameters related to inflammatory processes.
To evaluate the nitrite production, microglial cells were cultured in DMEM-F12 medium containing 2% heat-inactivated FBS in 48 well plates at a density of 20000 cells per well. Peripheral wells of the plate were discarded. After 72 h, 400 μL out of 500 μL medium was replaced by 350 μL fresh medium. The cells were treated with each molecule to be tested by adding 50 μL of a 10× solution to obtain a final concentration ranging from 0.1 μM to 1 μM. Each treatment was done in duplicates. 10 ng/ml LPS was added after 1 hour and the medium was collected after 48 h and stored at −20° C. until analysis. To quantify the NO production, nitrites were measured using Griess reactive (sulfanilamide 1%, Sigma; N-(1-Naphthyl)ethylenediamine 0.1%, Sigma; phosphoric acid 2.5%). Briefly, 100 μL of medium was placed into a 96 well plate and 100 μL of Griess reactive was added. After […] incubation at RT in the dark, the OD was measured at 550 nm.
The ability of each test compound to decrease the production of nitrite is presented as a percent decrease in OD with respect to the absorbance of the control condition i.e. 0.1% DMSO.

[2] = test system: NSCs derived neurospheres; experiment: Differentiation of NSCs to neurons: real-time PCR of Hes5 and Mash1 in neurospheres (Notch signaling); assay type: cell-based, mouse; conditions: 1 μM, vs 0.1% DMSO vehicle, β-actin internal control
Procedure: The NSCs derived neurospheres culture was established from embryonic mouse cortices. Neurospheres were maintained in Neurobasal-A medium supplemented with B27 w/o retinoic acid, 2 mM Glutamine, 20 ng/ml EGF and antibiotics. The neurospheres were dissociated using a non enzymatic dissociation medium (Invitrogen) and the single cell suspension added to a flask with fresh medium. To differentiate the neurospheres into neurons, oligodendrocytes and astrocytes, 3 to 4 days old neurospheres were cultured in poly-ornithine treated 35 mm dishes. Cells were treated with test compounds (1 μM) or 0.1% DMSO vehicle as control in Neurobasal-A medium supplemented with B27 w/o retinoic acid, 2 mM Glutamine, antibiotics, 2 ng/ml EGF and 0.5% of heat inactivated FBS. RNA extraction was performed after 24 hours of incubation and gene expression was analyzed by real-time PCR.
The primer pairs for mouse Mash1, Hes5 and beta-actin were designed with the beacon designer software (premierbiosoft).
Notch signaling controls a wide variety of cell fate decisions, including the differentiation of NSCs during neurogenesis [Artavanis-Tsakonas, S. et al., Science, 1999, 284, 770]. […] Notch activation induces the expression of the downstream effectors Hes1 and Hes5, which down-regulate gene transcription of b-HLH transcription factors such as Mash1. Therefore, we tested whether compounds of general Formula (I) and (II) could modulate Notch signalling in NSCs. […] Inhibition of the Hes5 gene expression in the treated cultures was further correlated with an increase of Mash1 transcripts, a b-HLH factor involved in neuronal specification and differentiation [Ito, H. et al., J Neurosci Res. 2003, 71, 648].
FIG. 2: Compound A and B induces NSCs differentiation into neurons. Real-time PCR gene expression analysis in neurospheres. RNA extraction was performed after […] of incubation with compound A and B (1 μM) or with 0.1% DMSO vehicle as control.

[3] = test system: SH-SY5Y neuroblastoma cell line; experiment: Differentiation of human neuroblastoma cell line SH-SY5Y into neurons: real-time PCR of Hash1 and Notch1; assay type: cell-based; conditions: 1 μM, 24 hours; vs 0.1% DMSO vehicle; β-actin internal control
Procedure: SH-SY5Y cells were cultured in 6 well plates at a density of 500000 cells per well and was maintained in DMEM with 10% FBS. After 24 h, the cells were treated with test compounds (1 μM) or 0.1% DMSO vehicle as control. RNA extraction was performed after 24 hours of incubation and gene expression was analyzed by real-time PCR.
The specific primer pairs directed against human Hash1, Notch1 and beta-actin are from the online database qprimerdepot (http://primerdepot.nci.nih.gov/).
The human homolog of Mash1, Hash1, is expressed in neuroblastoma cell lines. […] 2001, 36,132]. Therefore, we tested whether compounds of general Formula (I) and (II) could induce the differentiation of SH-SY5Y neuroblastoma cell line by modulating the gene expression of Hash1 and Notch1.
FIG. 3: Compound A and B induces neuroblastoma differentiation into a neuronal phenotype. Real-time PCR gene expression analysis in SH-SY5Y neuroblastoma cell line. RNA extraction was performed after 24 hours of incubation with compound A and B (1 μM) or with 0.1% DMSO vehicle as control.

microglial cell line = experiment: Real-time PCR gene expression analysis in microglial cell line with or without LPS activation; assay type: cell-based; conditions: 1 μM, 3 hours incubation, with or without LPS 0.01 μg/ml; normalized to β-actin
Procedure: To evaluate mRNA expression levels, total RNA was extracted using invisorb
RNA extraction kit (Invitek). The concentration was determined by reading the OD at 260 nm. Retro-transcription was performed using Im-Prom-II™ Reverse Transcription System (Promega) with 1 μg of total RNA.
The reaction mixture contained 12.5 μl 2× SYBR Green mastermix (Biorad), 1 μl cDNA, 1 μl of each primer (12.5 μM) and 9.5 μl of H2O. The real-time PCR amplification was controlled by the MyIQ5 system (Biorad). After activation of the enzyme at 94° C. for […], the amplification was done by cycling 40 times between a denaturation step at 94° C. and the annealing step at 54.5° C. Gene expression was analyzed using the provided software and normalized to beta-actin expression.
FIG. 1: Compound B inhibits microglial activation in vitro. Real-time PCR gene expression analysis in microglial cell line. RNA extraction was performed after 3 hours of incubation with compound B (1 μM), with or without LPS activation (0.01 μg/ml).

microglial cells [4] = experiment: TNF-α quantification by ELISA in supernatant of microglial cells; assay type: cell-based; conditions: test compound at 1 μM; medium collected 48 h after treatment; control 0.1% DMSO
Procedure: as §1
To quantify the presence of TNF-α in the supernatant of microglial cells, the medium was collected 48 h after treatment as described above. The ELISA 96 well plate was incubated overnight with the capture antibody (0.8 μg/ml, R&D). 10 μl of each sample was diluted with 90 μL of incubation buffer (PBS-BSA 1%, pH 7.2-7.4) and the plate was incubated for 2 h at RT. The plate was washed 3 times and incubated for 2 h with the detection antibody (150 ng/mL, R&D). […] After […] incubation at RT, the reaction was stopped with an equal volume of a 10% solution of sulfuric acid and the OD was measured at 450 nm.
The ability of each test compound to decrease the production of TNF-α is presented as a percent decrease in OD with respect to the absorbance of the control condition i.e. 0.1% DMSO.

COc1ccc(-c2oc3ccc(CCCCCCCCCCCCO)cc3c(=O)c2O)cc1OC
activity at 1 µM (microglial cells [1]): 87.7 ± 7.7%

COc1ccc(-c2oc3ccc(CCCCCCCCCCCCCO)cc3c(=O)c2O)cc1OC
activity at 1 µM (microglial cells [1]): 89 ± 7.6%

O=c1c(O)c(-c2ccc(O)c(O)c2)oc2ccc(CCCCCCCCCCCCO)cc12
activity at 1 µM (microglial cells [1]): 84.5 ± 5.9%

O=c1c(O)c(-c2ccc(O)c(O)c2)oc2ccc(CCCCCCCCCCCCCO)cc12
activity at 1 µM (microglial cells [1]): 86.3 ± 4.2%

COc1cc(-c2oc3ccc(CCCCCCCCCCCCCO)cc3c(=O)c2OC)ccc1O
activity at 1 µM (microglial cells [1]): 95.3 ± 4.8%

COc1ccc(-c2oc3ccc(CCCCCCCCCCCCCO)cc3c(=O)c2O)cc1O
activity at 1 µM (microglial cells [1]): 103 ± 4%

COc1cc(-c2oc3cc(O)c(CCCCCCCCCCCCO)cc3c(=O)c2O)ccc1O
activity at 1 µM (microglial cells [1]): 90.3 ± 3.9%

COc1cc(-c2oc3cc(O)c(CCCCCCCCCCCCCO)cc3c(=O)c2O)ccc1O
activity at 1 µM (microglial cells [1]): 98.2 ± 1%

COc1cc(-c2oc3cc(O)c(CCCCCCCCCCCCO)c(O)c3c(=O)c2O)ccc1O
activity at 1 µM (microglial cells [1]): 99.6 ± 1.5%

COc1cc(-c2oc3cc(O)c(CCCCCCCCCCCCCO)c(O)c3c(=O)c2O)ccc1O
activity at 1 µM (microglial cells [1]): 109 ± 10.5%

O=c1c(O)c(-c2ccc(O)c(O)c2)oc2cc(O)c(CCCCCCCCCCCCO)c(O)c12
activity at 1 µM (microglial cells [1]): 81.6 ± 4%

O=c1c(O)c(-c2ccc(O)c(O)c2)oc2cc(O)c(CCCCCCCCCCCCCO)c(O)c12
activity at 1 µM (microglial cells [1]): 82.4 ± 6.3%

COc1c(CCCCCCCCCCCCO)c(O)cc2oc(-c3ccc(O)c(O)c3)c(O)c(=O)c12
activity at 1 µM (microglial cells [1]): 112 ± 1.7%

COc1c(CCCCCCCCCCCCCO)c(O)cc2oc(-c3ccc(O)c(O)c3)c(O)c(=O)c12
activity at 1 µM (microglial cells [1]): 91.5 ± 2.6%

COc1cc(-c2oc3cc(O)c(CCCCCCCCCCCCO)c(OC)c3c(=O)c2O)ccc1O
activity at 1 µM (microglial cells [1]): 97.6 ± 6.9%

COc1cc(-c2oc3cc(O)c(CCCCCCCCCCCCCO)c(OC)c3c(=O)c2O)ccc1O
activity at 1 µM (microglial cells [1]): 96.6 ± 4.2%

COc1cc(-c2cc(=O)c3cc(CCCCCCCCCCCCCO)ccc3o2)ccc1O
activity at 1 µM (microglial cells [1]): 102 ± 3.8%

COc1cc(-c2oc3cc(O)c4cc(CCCCCCCCCCCCO)oc4c3c(=O)c2O)ccc1O
activity at 1 µM (microglial cells [1]): 112 ± 8%

O=c1c(O)c(-c2ccc(O)c(O)c2)oc2cc(O)c3cc(CCCCCCCCCCCCO)oc3c12
activity at 1 µM (microglial cells [1]): 112 ± 9.2%

COc1cc(-c2oc3ccc(CCCCCCCCCCCCO)cc3c(=O)c2O)ccc1O [Compound A, 3-hydroxy-2-(4-hydroxy-3-methoxyphenyl)-6-(12-hydroxydodecyl)-4H-chromen-4-one]
Hes5 gene expression [2]: decrease | Mash1 transcripts [2]: increase; also recorded: significantly increased | Hash1 transcripts [3]: inhibit; also recorded: significantly decreased | Notch1 transcripts [3]: inhibit; also recorded: significantly decreased

COc1cc(-c2oc3ccc(CCCCCCCCCCCCCO)cc3c(=O)c2O)ccc1O [Compound B, 3-hydroxy-2-(4-hydroxy-3-methoxyphenyl)-6-(13-hydroxytridecyl)-4H-chromen-4-one]
Expression of transcripts (iNOS, TNF-α gene expression) in treated microglial cells (microglial cell line): significantly decreased | Hes5 gene expression [2]: decrease | Mash1 transcripts [2]: increase; also recorded: significantly increased | Hash1 transcripts [3]: inhibit; also recorded: significantly decreased | Notch1 transcripts [3]: inhibit; also recorded: significantly decreased

COc1cc(-c2oc3ccc(CCCCCCCCCCCO)cc3c(=O)c2O)ccc1O [drawing 16]
activity at 1 µM (microglial cells [1]): 72 ± 3%

COc1cc(-c2oc3ccc(CCCCCCCCCCCCO)cc3c(=O)c2O)ccc1O [drawing 17]
activity at 1 µM (microglial cells [1]): 61.1 ± 3.1%

COc1cc(-c2oc3ccc(CCCCCCCCCCCCCO)cc3c(=O)c2O)ccc1O [drawing 18, 3-hydroxy-2-(4-hydroxy-3-methoxyphenyl)-6-(13-hydroxytridecyl)-4H-chromen-4-one]
activity at 1 µM (microglial cells [1]): 59.8 ± 2.1%

COc1cc(-c2oc3ccc(CCCCCCCCCCCCCCO)cc3c(=O)c2O)ccc1O [drawing 19]
activity at 1 µM (microglial cells [1]): 77.5 ± 3.9%

CCCCCCCCCCCCCc1ccc2oc(-c3ccc(O)c(OC)c3)c(O)c(=O)c2c1 [drawing 35]
activity at 1 µM (microglial cells [1]): 85 ± 0.9%

COc1cc(-c2oc3ccc(CCCCCCCCCCCO)cc3c(=O)c2O)ccc1O [drawing 38]
% of TNF-α/control (microglial cells [4]): 69.2 ± 3.9%

COc1cc(-c2oc3ccc(CCCCCCCCCCCCCO)cc3c(=O)c2O)ccc1O [drawing 40]
% of TNF-α/control (microglial cells [4]): 77.2 ± 9.4%

COc1cc(-c2oc3ccc(CCCCCCCCCCCCCCO)cc3c(=O)c2O)ccc1O [drawing 41]
% of TNF-α/control (microglial cells [4]): 75.4 ± 17.2%

CCCCCCCCCCCCCc1ccc2oc(-c3ccc(O)c(OC)c3)c(O)c(=O)c2c1 [drawing 42]
% of TNF-α/control (microglial cells [4]): 91.2 ± 7.9%
